Results as given in US6461997B1, “Triazole sulfones having herbicidal activity” (Monsanto Technology LLC, priority 1999, dated 2002).

Experiments:
ECHCG (barnyardgrass) = test: Pre-emergence herbicidal activity, warm season; type: in vivo, Echinochloa crus-galli; details: GR80 = lowest tested rate (300, 100, 30, 10 g/ha) with 80% or greater inhibition; approx. 14 days after treating; 30/21° C.
Summary of the method: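 GR80 values derive from percent inhibition relative to untreated plants, read roughly 14 days after sowing and pre-emergence soil-surface treatment (compound in 50:50 acetone/water; rates typically 10, 30, 100, 300 g/ha). Warm-season weeds grew at 30/21° C day/night, cool-season ones at 18/13° C; an asterisk marks activity without reaching 80% at the highest rate.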

SETFA (giant foxtail) = test: Pre-plant incorporated (PPI) herbicidal activity, warm season; type: in vivo, Setaria faberi
Summary of the method: (§1)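 Seeds were sown on compacted topsoil and covered with soil that had been sprayed with compound in organic solvent and mixed through. Pots got 0.64 cm overhead irrigation, then greenhouse at 30/21 °C (warm-season species) or 18/13 °C (cool-season species) day/night. Percent inhibition versus untreated plants was scored about 14 days after planting.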

wheat (TRZAW) = test: Selectivity test, PPI, cool season crop; type: in vivo, Triticum aestivum; details: PPI application
Summary of the method: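 Pre-plant incorporated: compound in organic solvent sprayed onto cover soil, mixed and laid over seeds; untreated soil for controls. Greenhouse after treatment: warm season 30/21° C., cool season 18/13° C. day/night. Percent inhibition versus untreated plants scored about 14 days after planting.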

[1] = system: PANMI (wild proso millet); test: Pre-plant incorporated (PPI) herbicidal activity, warm season; type: in vivo, Panicum miliaceum
Summary of the method: as §1

AMARE (redroot pigweed) = test: as above; type: in vivo, Amaranthus retroflexus
Summary of the method: as §1

[2] = system: AGSST (creeping bentgrass); test: Pre-plant incorporated (PPI) herbicidal activity, cool season; type: in vivo, Agrostis stolonifera
Summary of the method: as §1

[3] = system: GALAP (catchweed bedstraw); test: Pre-emergence herbicidal activity, cool season; type: in vivo, Galium aparine; details: lowest tested rate with 80% or greater inhibition; rates 300, 100, 30, 10 g/ha; about 14 days
Summary of the method: (§2)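 Seeds sown in sterilised fertilised topsoil received surface-applied compound in 50:50 acetone/water, typically at 300, 100, 30 and 10 g/ha, then greenhouse-grown at 30/21° C (warm-season species) or 18/13° C (cool-season species). Percent inhibition versus untreated plants was scored at about 14 days, giving GR80; an asterisk marks activity short of 80% at the top rate.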

[4] = system: CHEAL (common lambsquarters); test: Pre-plant incorporated (PPI) herbicidal activity, warm season; type: in vivo, Chenopodium album; details: for Percent inhibition CHEAL: PPI application
Summary of the method: as §1

SOLNI (black nightshade) = test: as above; type: in vivo, Solanum nigrum
Summary of the method: as §1

ALOMY (blackgrass) = test: Pre-emergence herbicidal activity, cool season; type: in vivo, Alopecurus myosuroides; details: GR80 = lowest tested rate (300, 100, 30, 10 g/ha) with 80% or greater inhibition; approx. 14 days after treating; 18/13° C.
Summary of the method: as §2

[5] = pre-plant incorporated, lowest tested rate with 80% or greater inhibition, about 14 days
[6] = pre-plant incorporated, GR80 = lowest tested rate with 80% or greater inhibition, approx. 14 days after treating, 30/21° C.

C=C(Br)CC(F)(F)S(=O)(=O)c1ncn(C(=O)N(CC)CC)n1 [Example 19]
100 g/ha: PPI activity GR80, PANMI [1, 5] | PPI activity (GR80) AMARE (AMARE (redroot pigweed); [6]) | PPI activity (GR80) CHEAL [4, 6] | PPI activity (GR80) SOLNI (SOLNI (black nightshade); [6]) | Pre-emergence activity (GR80) ALOMY (ALOMY (blackgrass))
0%: inhibition at 10 g/ha (wheat (TRZAW); Triticum aestivum, 10 g/ha, read-out: Percent inhibition TRZAW) | inhibition at 30 g/ha (wheat (TRZAW); Triticum aestivum, 30 g/ha, read-out: Percent inhibition TRZAW) | inhibition at 10 g/ha ([1]; Panicum miliaceum, PPI application, 10 g/ha, read-out: Percent inhibition PANMI) | inhibition at 10 g/ha (AMARE (redroot pigweed); Amaranthus retroflexus, PPI application, 10 g/ha, read-out: Percent inhibition AMARE) | inhibition at 10 g/ha (SOLNI (black nightshade); Solanum nigrum, PPI application, 10 g/ha, read-out: Percent inhibition SOLNI) | inhibition at 30 g/ha (SOLNI (black nightshade); Solanum nigrum, PPI application, 30 g/ha, read-out: Percent inhibition SOLNI) | inhibition at 100 g/ha (SOLNI (black nightshade); Solanum nigrum, PPI application, 100 g/ha, read-out: Percent inhibition SOLNI)
90%: inhibition at 10 g/ha (SETFA (giant foxtail); Setaria faberi, PPI application, 10 g/ha, read-out: Percent inhibition SETFA) | inhibition at 100 g/ha (SETFA (giant foxtail); Setaria faberi, PPI application, 100 g/ha, read-out: Percent inhibition SETFA) | inhibition at 30 g/ha ([2]; Agrostis stolonifera, weed, PPI application, 30 g/ha, read-out: Percent inhibition AGSST) | inhibition at 300 g/ha ([2]; Agrostis stolonifera, weed, PPI application, 300 g/ha, read-out: Percent inhibition AGSST) | inhibition at 900 g/ha (SOLNI (black nightshade); Solanum nigrum, PPI application, 900 g/ha, read-out: Percent inhibition SOLNI)
95%: inhibition at 100 g/ha (AMARE (redroot pigweed); Amaranthus retroflexus, PPI application, 100 g/ha, read-out: Percent inhibition AMARE) | inhibition at 300 g/ha (AMARE (redroot pigweed); Amaranthus retroflexus, PPI application, 300 g/ha, read-out: Percent inhibition AMARE)
100%: inhibition at 30 g/ha (SETFA (giant foxtail); Setaria faberi, PPI application, 30 g/ha, read-out: Percent inhibition SETFA) | inhibition at 300 g/ha (SETFA (giant foxtail); Setaria faberi, PPI application, 300 g/ha, read-out: Percent inhibition SETFA) | inhibition at 900 g/ha (SETFA (giant foxtail); Setaria faberi, PPI application, 900 g/ha, read-out: Percent inhibition SETFA) | inhibition at 100 g/ha ([1]; Panicum miliaceum, PPI application, 100 g/ha, read-out: Percent inhibition PANMI) | inhibition at 300 g/ha ([1]; Panicum miliaceum, PPI application, 300 g/ha, read-out: Percent inhibition PANMI) | inhibition at 900 g/ha ([1]; Panicum miliaceum, PPI application, 900 g/ha, read-out: Percent inhibition PANMI) | inhibition at 900 g/ha (AMARE (redroot pigweed); Amaranthus retroflexus, PPI application, 900 g/ha, read-out: Percent inhibition AMARE) | inhibition at 100 g/ha ([2]; Agrostis stolonifera, weed, PPI application, 100 g/ha, read-out: Percent inhibition AGSST) | inhibition at 900 g/ha ([2]; Agrostis stolonifera, weed, PPI application, 900 g/ha, read-out: Percent inhibition AGSST)
30%: inhibition at 100 g/ha (wheat (TRZAW); Triticum aestivum, 100 g/ha, read-out: Percent inhibition TRZAW)
10 g/ha: PPI activity GR80, AGSST [2, 5]
60%: inhibition at 900 g/ha (wheat (TRZAW); Triticum aestivum, 900 g/ha, read-out: Percent inhibition TRZAW) | inhibition at 30 g/ha ([1]; Panicum miliaceum, PPI application, 30 g/ha, read-out: Percent inhibition PANMI) | inhibition at 10 g/ha ([2]; Agrostis stolonifera, weed, PPI application, 10 g/ha, read-out: Percent inhibition AGSST)
30 g/ha: PPI activity GR80, SETFA (SETFA (giant foxtail); [5])
20%: inhibition at 30 g/ha (AMARE (redroot pigweed); Amaranthus retroflexus, PPI application, 30 g/ha, read-out: Percent inhibition AMARE)
40%: inhibition at 300 g/ha (SOLNI (black nightshade); Solanum nigrum, PPI application, 300 g/ha, read-out: Percent inhibition SOLNI)
300 g/ha: Pre-emergence activity (GR80) ECHCG (ECHCG (barnyardgrass)) | Pre-emergence activity GR80, GALAP [3]
70%: inhibition at 300 g/ha (wheat (TRZAW); Triticum aestivum, 300 g/ha, read-out: Percent inhibition TRZAW)

CCN(CC)C(=O)n1cnc(S(=O)(=O)C(F)(F)Cl)n1 [Example 3]
70%: Percent inhibition SOLNI (SOLNI (black nightshade); PPI application, 30 g/ha)
20%: Percent inhibition TRZAW (wheat (TRZAW); 300 g/ha)
100%: Percent inhibition SETFA (SETFA (giant foxtail); PPI application, 30 g/ha) | Percent inhibition SETFA (SETFA (giant foxtail); PPI application, 100 g/ha) | Percent inhibition SETFA (SETFA (giant foxtail); PPI application, 300 g/ha) | Percent inhibition SETFA (SETFA (giant foxtail); PPI application, 900 g/ha) | Percent inhibition PANMI ([1]; PPI application, 30 g/ha) | Percent inhibition PANMI ([1]; PPI application, 100 g/ha) | Percent inhibition PANMI ([1]; PPI application, 300 g/ha) | Percent inhibition PANMI ([1]; PPI application, 900 g/ha) | Percent inhibition AMARE (AMARE (redroot pigweed); PPI application, 100 g/ha) | Percent inhibition AMARE (AMARE (redroot pigweed); PPI application, 300 g/ha) | Percent inhibition AMARE (AMARE (redroot pigweed); PPI application, 900 g/ha) | Percent inhibition AGSST ([2]; weed, PPI application, 30 g/ha) | Percent inhibition AGSST ([2]; weed, PPI application, 100 g/ha) | Percent inhibition AGSST ([2]; weed, PPI application, 300 g/ha) | Percent inhibition AGSST ([2]; weed, PPI application, 900 g/ha) | Percent inhibition CHEAL ([4]; 300 g/ha) | Percent inhibition CHEAL ([4]; 900 g/ha) | Percent inhibition SOLNI (SOLNI (black nightshade); PPI application, 100 g/ha) | Percent inhibition SOLNI (SOLNI (black nightshade); PPI application, 300 g/ha) | Percent inhibition SOLNI (SOLNI (black nightshade); PPI application, 900 g/ha)
90%: Percent inhibition AMARE (AMARE (redroot pigweed); PPI application, 30 g/ha)
40%: Percent inhibition TRZAW (wheat (TRZAW); 900 g/ha)
100 g/ha: Pre-emergence activity GR80, GALAP [3] | Pre-emergence activity (GR80) ALOMY (ALOMY (blackgrass))
30 g/ha: Pre-emergence activity (GR80) ECHCG (ECHCG (barnyardgrass))
80%: Percent inhibition CHEAL ([4]; 30 g/ha)
0%: Percent inhibition TRZAW (wheat (TRZAW); 30 g/ha) | Percent inhibition TRZAW (wheat (TRZAW); 100 g/ha)
99%: Percent inhibition CHEAL ([4]; 100 g/ha)
